In patent EP4581948A1, “AEROSOLISABLE MATERIAL FOR USE IN AN ARTICLE” (BT DE Investments Inc., priority 2024, dated 2025):

Test: Solubility study: maximum solubility of terpenes in solvent by stepwise addition and visual inspection
Type: physicochemical
Details: ambient temperature (18 to 22 degrees Celsius); for Max. solubility of terpenes in solvent (% w/w) BA: solvent benzyl alcohol (BA); for Max. solubility of terpenes in solvent (% w/w) PG: solvent propylene glycol (PG); for Max. solubility of terpenes in solvent (% w/w) PG + 8% BA: solvent propylene glycol with 8%w/w benzyl alcohol
Method: A solubility study was carried out to assess the solubility of a range of terpenes in propylene glycol (PG) and benzyl alcohol (BA), and a mixture of propylene glycol (PG) and 8%w/w benzyl alcohol (BA) (materials were sourced from Sigma).
In particular, the maximum solubility at ambient temperature was assessed following the stepwise addition of each terpene to the relevant solvent or solvent mixture. Each terpene was added in aliquots to a solvent (PG, BA or a combination of PG and BA, where the BA was present in an amount of 8%w/w of the PG) and stirred at ambient temperature (18 to 22 degrees Celsius) until the terpene had fully solubilized. The next aliquot of terpene was then added.

Max. solubility of terpenes in solvent (% w/w) BA [% w/w] | Max. solubility of terpenes in solvent (% w/w) PG [% w/w] | Max. solubility of terpenes in solvent (% w/w) PG + 8% BA [% w/w] | Compound
71.2 | 47.0 | 70.3 | CC(C)=CCCC(C)CCO (stereo not drawn) [beta-citronellol]
73.2 | 72.6 | 74.3 | C=C[C@](C)(O)CCC=C(C)C [R- linalool]
11.0 | 1.1 | 2.4 | C=C1CC/C=C(\C)CC[C@@H]2[C@@H]1CC2(C)C [beta-caryophyllene]

Compound | Max. solubility of terpenes in solvent (% w/w) BA [% w/w] | Max. solubility of terpenes in solvent (% w/w) PG [% w/w] | Max. solubility of terpenes in solvent (% w/w) PG + 8% BA [% w/w]
C=CC(C)(CCC=C(C)C)OC(C)=O (stereo not drawn) [Linalyl acetate] | 34.5 | 1.4 | 6.0
